In one assay the target is T1, AmpC P. aeruginosa (Pseudomonas aeruginosa, UniProt P24735).
T1 construct: made in house; host or cells: E. coli
Nature of the assay: biochemical.

A further assay deals with T2, KPC-2 (Klebsiella pneumoniae, UniProt Q9F663).
T2 construct: made in house; host or cells: E. coli
Nature of the assay: biochemical.

The target in the next assay is P99 AmpC (Enterobacter cloacae, UniProt P05364). The assay can be described thus: biochemical.
A further assay has as its target T3, OXA-11 (Pseudomonas aeruginosa, UniProt Q06778).
T3 construct: made in house; host or cells: E. coli
The assay can be described thus: biochemical.

The target in a further assay is T4, OXA-15 (Pseudomonas aeruginosa, UniProt Q51574).
T4 construct: made in house; host or cells: E. coli
The assay can be described thus: biochemical.

Another assay deals with T5, TEM-1 (Escherichia coli, UniProt P62593).
T5 construct: made in house; host or cells: E. coli
Nature of the assay: β-lactamase inhibitory activity, nitrocefin hydrolysis. Type of assay: biochemical.

For the next assay, the target named is T6, CTX-M-15 (Escherichia coli, UniProt Q9EXV5).
T6 construct: made in house; host or cells: E. coli
The assay can be described thus: biochemical.

The target in a further assay is T7, SHV-1 (Klebsiella pneumoniae, UniProt P0AD64).
T7 construct: made in house; host or cells: E. coli
Nature of the assay: biochemical.

For a further assay, the target named is T8, OXA-1 (Escherichia coli, UniProt P13661).
T8 construct: made in house; host or cells: E. coli
The assay can be described thus: biochemical.

In the next assay the target is T9, OXA-48 (Klebsiella pneumoniae, UniProt Q6XEC0).
T9 construct: made in house; host or cells: E. coli
The assay can be described thus: biochemical.

For a further assay, the system named is E. coli ECO 190317. The assay can be described thus: MIC of compounds alone, broth microdilution (CLSI). Conditions: Escherichia coli, ECO190317, read-out: MIC alone.
The mark [1] stands for this setting: class (A), nitrocefin 200 μM, 30 min pre-incubation, room temperature, read-out: BLA IC50 KPC-2.
[2] abbreviates: class (A), nitrocefin 200 μM, 30 min pre-incubation, room temperature, read-out: BLA IC50 TEM-1.
[3] abbreviates: class (A), nitrocefin 200 μM, 30 min pre-incubation, room temperature, read-out: BLA IC50 CTX-M-15.
[4] abbreviates: class (D), nitrocefin 200 μM, 30 min pre-incubation, room temperature, read-out: BLA IC50 OXA-1.
Where [5] appears, read: class (D), nitrocefin 200 μM, 30 min pre-incubation, room temperature, read-out: BLA IC50 OXA-48.
Where [6] appears, read: class (C), nitrocefin 200 μM, 30 min pre-incubation, room temperature, read-out: BLA IC50 AmpC (PAE).

Structures can show the parent of a compound that is named as a salt. Where two headings read alike, the source gives them in different places.

This passage reports IC50 and MIC results from US11530227B2, “Heterocyclic compounds and their use in preventing or treating bacterial infections” (MUTABILIS, priority 2018, dated 2022).

`CCOC(=O)[C@@H]1c2c(sc3ccccc23)[C@@H]2CN1C(=O)N2OS(=O)(=O)[O-].[Na+]` (relative stereo) [Example 2, sulfate]: the half-maximal inhibitory concentration (IC50) (usually the concentration that inhibits the measured activity by half) on AmpC P. aeruginosa turned out to be 2.5 nM; on KPC-2 (setting [1]) it was 0.94 nM; against P99 AmpC it was 0.51 nM; on OXA-11, 2.2 nM; against OXA-15 it was 830 nM; at TEM-1 (setting [2]), 0.22 nM. Further, the IC50 stood at 2.6 nM at CTX-M-15 (setting [3]), 0.43 nM on SHV-1, 37 nM at OXA-1 (setting [4]) and 0.66 nM on OXA-48 (setting [5]).
As for `CCOC(=O)[C@@H]1c2c(sc3ccccc23)[C@@H]2CN1C(=O)N2OS(=O)(=O)[O-].[Na+]` (relative stereo) [Example 2], the MIC (in general, the lowest concentration found to suppress growth) in the assay with E. coli ECO 190317 is greater than 32 µg/mL.
For the compound `NC(=O)[C@@H]1c2c(sc3ccccc23)[C@@H]2CN1C(=O)N2OS(=O)(=O)[O-].[Na+]` (relative stereo) [Example 3, sulfate], the concentration for half-maximal inhibition (IC50) on AmpC P. aeruginosa (setting [6]) came to 62 nM; on KPC-2 (setting [1]) it was 9.3 nM; against P99 AmpC it was 4.5 nM; against OXA-11, 31 nM; against OXA-15, 7100 nM; at TEM-1 (setting [2]), 1.3 nM. The half-inhibitory concentration (IC50) at CTX-M-15 (setting [3]) stood at 2.5 nM; on SHV-1 it was 2.2 nM; on OXA-1 (setting [4]) it was 190 nM; at OXA-48 (setting [5]), 4.8 nM.
For the compound `NC(=O)[C@@H]1c2c(sc3ccccc23)[C@@H]2CN1C(=O)N2OS(=O)(=O)[O-].[Na+]` (relative stereo) [Example 3], in the assay with E. coli ECO 190317, the MIC was determined as 8 µg/mL.
Regarding `CCOC(=O)[C@@H]1c2c(n(C)c3ccccc23)[C@@H]2CN1C(=O)N2OS(=O)(=O)[O-].[Na+]` (relative stereo) [Example 6, sulfate], the IC50 on AmpC P. aeruginosa (setting [6]) came out at 3.6 nM; on KPC-2 (setting [1]), 4.2 nM; on P99 AmpC, 2 nM; against OXA-11 it was 160 nM; against OXA-15, 6500 nM; on TEM-1 (setting [2]), 0.2 nM. In addition, the half-inhibitory concentration (IC50) amounted to 1.5 nM at CTX-M-15 (setting [3]), 0.25 nM at SHV-1, 1300 nM at OXA-1 (setting [4]) and 4.6 nM at OXA-48 (setting [5]).
As for `CCOC(=O)[C@@H]1c2c(n(C)c3ccccc23)[C@@H]2CN1C(=O)N2OS(=O)(=O)[O-].[Na+]` (relative stereo) [Example 6], the MIC in the assay on E. coli ECO 190317 is greater than 32 µg/mL.
Turning to `CC(C)(O/N=C(\C(=O)N[C@@H]1C(=O)N2C(C(=O)[O-])=C(C[n+]3ccccc3)CS[C@H]12)c1csc(N)n1)C(=O)O` [CAZ, Ceftazidime, reference compound], the minimal inhibitory concentration (MIC) in the assay with E. coli ECO 190317 came to 128 µg/mL.
Turning to `O=C1N2Cc3c(sc4ccccc34)C(C2)N1OS(=O)(=O)[O-].[Na+]` (stereo not drawn) [Example 1, Sodium (2,5-methano-3-oxo-1,5-dihydrobenzothiopheno[2,3-e][1,3]diazepin-4-yl) sulfate], the IC50 against AmpC P. aeruginosa amounted to 8.8 nM; on KPC-2 (setting [1]), 26 nM; against P99 AmpC, 17 nM; against OXA-11, 41 nM; on OXA-15, 3400 nM; at TEM-1 (setting [2]) it was 0.65 nM. The IC50 at CTX-M-15 (setting [3]) is 1 nM; against SHV-1, 4.1 nM; on OXA-1 (setting [4]), 120 nM; at OXA-48 (setting [5]) it was 1.1 nM. In addition, the MIC in the assay with E. coli ECO 190317 is 16 µg/mL.
For the compound `O=C1N2Cc3nc4ccccc4cc3C(C2)N1OS(=O)(=O)[O-].[Na+]` (stereo not drawn) [Example 4, sodium 1,4-methano-3-oxo-1,5-dihydro-[1,3]diazepino[5,6-b]quinolin-2-yl) sulfate], the IC50 on AmpC P. aeruginosa (setting [6]) stood at 2800 nM; at KPC-2 (setting [1]) it was 370 nM; against P99 AmpC, 120 nM; against OXA-11, 590 nM; against OXA-15, 13000 nM; on TEM-1 (setting [2]) it was 36 nM. The concentration for half-maximal inhibition (IC50) at CTX-M-15 (setting [3]) turned out to be 9.9 nM; against SHV-1 it was 150 nM; at OXA-1 (setting [4]), 4100 nM; at OXA-48 (setting [5]) it was 1.5 nM.
Turning to `O=C1N2Cc3nc4ccccc4cc3C(C2)N1OS(=O)(=O)[O-].[Na+]` (stereo not drawn) [Example 4], the minimum inhibitory concentration (MIC) in the assay with E. coli ECO 190317 is 8 µg/mL.
For `O=C1N2Cc3nc4cnccc4cc3C(C2)N1OS(=O)(=O)[O-].[Na+]` (stereo not drawn) [Example 5, sodium (1,4-methano-3-oxo-1,5-dihydro-[1,3]diazepino[5,6-b][1,7]naphthyridin-2-yl) sulfate], the IC50 at AmpC P. aeruginosa (setting [6]) came to 3600 nM; on KPC-2 (setting [1]), 160 nM; at P99 AmpC it was 100 nM; against OXA-11 it was 190 nM; against OXA-15, 1800 nM; at TEM-1 (setting [2]), 14 nM. In addition, the concentration for half-maximal inhibition (IC50) at CTX-M-15 (setting [3]) was found to be 14 nM; against SHV-1, 77 nM; at OXA-1 (setting [4]), 1700 nM; at OXA-48 (setting [5]), 1 nM. The minimal inhibitory concentration (MIC) in the assay on E. coli ECO 190317 turned out to be 4 µg/mL.
As to `CCN(CC)C(=O)N1CCc2sc3c(c2C1)CN1CC3N(OS(=O)(=O)O)C1=O` (stereo not drawn) [Example 7, sodium [9-(diethylcarbamoyl)-2,5-methano-3-oxo-5,7,8,10-tetrahydro-1H-pyrido[3,4]thieno[1,3-d][1,3]diazepin-4-yl] sulfate], the IC50 was found to be 550 nM on AmpC P. aeruginosa (setting [6]); 26 nM on KPC-2 (setting [1]); 110 nM against OXA-11; 14000 nM at OXA-15; 43 nM at TEM-1; 1.3 nM on CTX-M-15 (setting [3]). The IC50 against SHV-1 was 13 nM; at OXA-1 (setting [4]), 5100 nM; on OXA-48 (setting [5]), 6.8 nM. Also, the minimum inhibitory concentration (MIC) with E. coli ECO 190317 was greater than 32 µg/mL.
In the case of `O=C1N2Cc3c(sc4c3CNCC4)C(C2)N1OS(=O)(=O)O` (stereo not drawn) [Example 8, (2,5-methano-3-oxo-1,5,7,8,9,10-hexahydropyrido[2,3]thieno[2,4-d][1,3]diazepin-4-yl) hydrogen Sulfate], the IC50 was 8600 nM at AmpC P. aeruginosa (setting [6]); 1300 nM on KPC-2 (setting [1]); 1600 nM against P99 AmpC; 840 nM against OXA-11; 30000 nM against OXA-15; 9.6 nM on TEM-1 (setting [2]). The IC50 on CTX-M-15 (setting [3]) came out at 6.1 nM; at SHV-1, 26 nM; at OXA-1 (setting [4]) it was 15000 nM; on OXA-48 (setting [5]), 18 nM. For the same compound, the MIC in the assay on E. coli ECO 190317 came out at 1 µg/mL.
Regarding `Cn1c2c(c3scnc31)C1CN(C2)C(=O)N1OS(=O)(=O)O` (stereo not drawn) [Example 9, sodium (6,9-methano-4-methyl-7-oxo-5,9-dihydrothiazolo[3,4]pyrrolo[1,3-d][1,3]diazepin-8-yl) sulfate], the half-inhibitory concentration (IC50) was found to be 590 nM against AmpC P. aeruginosa; 26 nM at KPC-2; 120 nM against P99 AmpC; 62 nM against OXA-11; 940 nM against OXA-15; 0.49 nM on TEM-1. Moreover, the IC50 is 1.1 nM on CTX-M-15, 0.57 nM on SHV-1, 290 nM on OXA-1 and 1.2 nM at OXA-48. In addition, the MIC in the assay on E. coli ECO 190317 was greater than 32 µg/mL.
